Data published in BindingDB's records for PubMed 38701715 (Shaanxi University of Chinese Medicine).
pIC50: −log10 of the molar value.

Experiment: Inhibition of ACAT2 (unknown origin)

pIC50: 3.91
SMILES: COc1ccc([C@@H]2O[C@H](c3ccc(OC(C)C(O)c4ccc5c(c4)COC5)c(OC)c3)[C@H](C)[C@@H]2C)cc1OC (stereo partly specified)
